The values that follow are results of earlier work, collected in patent US20170049851A1, “Method for Medical Treatment” (priority 2015, published 2017).

The conditions of the series: healthy as well as unhealthy persons; some adverse effects, largely gastrointestinal, with very high intakes.

In the case of `COC1=C(OC)C(=O)C(C/C=C(\C)CC/C=C(\C)CC/C=C(\C)CC/C=C(\C)CC/C=C(\C)CC/C=C(\C)CC/C=C(\C)CC/C=C(\C)CC/C=C(\C)CCC=C(C)C)=C(C)C1=O` [CoQ10, ubiquinone], the “daily dosage found to be tolerated” value was “up to 3600 mg”.
